From patent US20130164325A1, “CERAMIDE-LIKE GLYCOLIPID-ASSOCIATED BACTERIAL VACCINES AND USES THEREOF” (Albert Einstein College of Medicine of Yeshiva University, priority 2010, published 2013)

Tested on: mouse splenocytes
Assay: Activation of mouse splenocytes with glycolipid-treated BMDCs, IFNγ production
Format: cell-based
Conditions: free glycolipid, compared to vehicle control (FIG. 5B)

`CCCCCCCCCCCCCCCCCCCCCCCCCC(=O)N[C@@H](CO[C@H]1O[C@H](CO)[C@H](O)[C@H](O)[C@H]1O)[C@H](O)[C@H](O)CCCCCCCCCCCCCC` [KRN7000, (2S,3S,4R)-1-O-(α-D-galactopyranosyl)-N-hexacosanoyl-2-amino-1,3,4-octadecanetriol] was tested, and the IFNγ production was “induced IFNγ production”.
